Columns and labels:
EGFP-TAU protein = experiment: Screening with mCherry-2A-EGFP-TAU assay cells, Western blot analysis; assay type: cell-based, human
Description: An assay cell having the simultaneous expression system of EGFP-fused TAU and mCherry (mCherry-2A-EGFP-TAU) as shown in the model diagram of FIG. 5 was produced. Specifically, the process was as follows. EGFP was fused with TAU (EGFP-TAU), and further, it was connected in-frame by using 2A peptide and mCherry gene that codes a red fluorescent protein (mCherry-2A-EGFP-TAU). The 2A peptide is an amino acid sequence enabling a bicistronic gene expression. Thereby, mCherry-2A-EGFP-TAU is translated simultaneously from the top of a single mRNA. A vector expressing the gene (mCherry-2A-EGFP-TAU) was produced in the following manner.

FLAGx3-DYRK1A protein = target: T1, FLAGx3-DYRK1A protein (Homo sapiens, UniProt Q13627); experiment: Screening with FLAGx3-DYRK1A-2A-HAx3-EGFP assay cells, Western blotting; assay type: cell-based; conditions: Western blot; for amount of intracellular DYRK1A protein: concentration of 4 μm, FIG. 8; for amount of FLAGx3-DYRK1A (FLAG-DYRK1A) protein within the cells: FIGS. 9-12, constant concentration not stated
T1 construct: 2A peptide (what is left of it after self-cleavage) (C); expressed in transfected cells
Description: Cultured cells with expressed FLAGx3-DYRK1A-2A-HAx3-EGFP (assay cells) were cultured on a plate, and test compounds of a constant concentration were added to the culture solution for a further cultivation. After the cultivation, the amounts of FLAGx3-DYRK1A, HAx3-EGFP, and GAPDH were quantitatively analyzed by a Western blotting method, and the ratio was analyzed.
After the cultivation, the amounts of FLAGx3-DYRK1A, HAx3-EGFP, and GAPDH were quantitatively analyzed by a Western blotting method, and the ratio was analyzed.
After the cultivation, the respective amounts of FLAGx3-DYRK1A, HAx3-EGFP, and GAPDH were quantitatively analyzed by a Western blotting method, and the ratio was analyzed.

DYRK1A = target: T2, DYRK1A (Rattus norvegicus, UniProt Q63470); experiment: Monitoring of DYRK1A activity inhibition using homocysteine in blood as index; assay type: in vivo; conditions: rats, oral, 18 mg/kg, FIG. 7
T2 construct: from tissue; host or cells: living rat (whole animal); blood plasma analysed for homocysteine
Description: DYRK1A inhibitor Harmine was orally administered to rats, and the post-administration homocysteine concentration in blood was measured. The specific conditions are as follows, and the results are illustrated in FIG. 7.
After dissolving the DYRK1A inhibitor Harmine in an administration solvent of 0.9% NaCl, about 1 ml per individual was orally administered (final administration concentration: 18 mg/kg). At certain interval after the administration, the blood was collected from caudate veins. From the blood, blood plasma was separated and preserved in the presence of EDTA-2Na. Analysis of the homocysteine concentration in the blood plasma was consigned to SRL. Specifically, the measurement was conducted by extracting fractures including homocysteine from the blood plasma and then analyzing the amount of homocysteine included in the extract by HPLC (see Araki A et al: Journal of Chromatography 422, 43-52 1987, Araki A: Gendai-Iryou 22, 10, 2544-2549 1990).

| Structure (SMILES) | melting point [°C] | amount of intracellular DYRK1A protein (FLAGx3-DYRK1A protein) | other results |
| --- | --- | --- | --- |
| Fc1ccc(N2CCN(c3ccccc3)CC2)c(NC(=S)c2ccncc2)c1 [Compound 2, N-[5-fluoro-2-(4-phenyl-1-piperazinyl)phenyl]isonicotinthioamide] | 183 to 186 |  | effect on stability of TAU protein (EGFP-TAU protein): make TAU protein unstable and allow the protein to decompose; effect on transcription and translation of TAU (EGFP-TAU protein): not to affect at all; amount of the EGFP-TAU protein within the cells (EGFP-TAU protein; Western blot, FIG. 6): reduces only the amount of the EGFP-TAU protein; amount of the internal standard mCherry protein (EGFP-TAU protein; Western blot, FIG. 6): does not affect |
| COc1ccc(/C=C2\SC(=S)NC2=O)cc1-c1cc(C(F)(F)F)cc(C(F)(F)F)c1 [Compound 6, (Z)-5-(3,5-bis(trifluoromethyl)phenyl-4-methoxybenzylidene)-2-thioxothiazolidin-4-one] | 244 to 245 |  |  |
| COc1ccc(/C=C2\SC(=S)NC2=O)cc1-c1cccc(C(F)(F)F)c1 [Compound 7, (Z)-5-(3-(trifluoromethyl)phenyl-4-methoxybenzylidene)-2-thioxothiazolidin-4-one] | 209 to 210 |  |  |
| COc1ccc(/C=C2\SC(=S)NC2=O)cc1-c1cc(C)cc(C)c1 [Compound 8, (Z)-5-(3,5-dimethylphenyl-4-methoxybenzylidene)-2-thioxothiazolidin-4-one] | 238 to 239 |  |  |
| COc1ccc2c([nH]c3c(C)nccc32)c1C#C[Si](C)(C)C [Compound 9, 8-[2-(trimethylsilyl)ethynyl]harmine] | 185 to 186 |  | amount of FLAGx3-DYRK1A (FLAG-DYRK1A) protein within the cells (FLAGx3-DYRK1A protein): reduces only the amount of the FLAG-DYRK1A protein; amount of the internal standard EGFP protein (FLAGx3-DYRK1A protein; FIGS. 10-11): does not affect |
| COc1ccc2c([nH]c3c(C)nccc32)c1C#CC1CCCCC1 [Compound 10, 8-[2-(cyclohexyl)ethynyl]harmine] | 198 to 199 |  | amount of FLAGx3-DYRK1A (FLAG-DYRK1A) protein within the cells (FLAGx3-DYRK1A protein): reduces the FLAGx3-DYRK1A protein |
| COc1ccc2c(c1)[nH]c1c(C)nccc12 [Harmine] |  |  | homocysteine in blood (DYRK1A; after two hours from administration): raised rapidly; homocysteine in blood compared with controls (DYRK1A; for 5 hours): higher numerical values in comparison with controls |

The next lines start with results.

| melting point [°C] | amount of intracellular DYRK1A protein (FLAGx3-DYRK1A protein) | Structure (SMILES) | other results |
| --- | --- | --- | --- |
| 185 to 186 | capable of reducing | COc1ccc(/C=C2\SC(=S)NC2=O)cc1C#CC1CCCCC1 [Compound 3, (Z)-5-(3-(cyclohexylethynyl)-4-methoxybenzylidene)-2-thioxothiazolidin-4-one] |  |
| 266 to 267 | capable of reducing | COc1ccc(/C=C2\SC(=S)NC2=O)cc1C#CC1C2CC3CC(C2)CC1C3 (stereo not drawn) [Compound 4, (Z)-5-(3-(2-adamantylethynyl)-4-methoxybenzylidene)-2-thioxothiazolidin-4-one] |  |
| 204 to 205 | capable of reducing | COc1ccc(/C=C2\SC(=S)NC2=O)cc1-c1cccc(C)c1 [Compound 5] |  |
